In patent US11331333B2, “Treatment of aberrant fibroblast proliferation” (Georg August Universitaet Goettingen Stiftung Oeffentlichen …, priority 2019, dated 2022):

Assays:
[1] = tested on: primary murine fibroblast cultures overexpressing EYA1A; test: γH2A.X^pY142 labelling after NCS exposure in fibroblasts overexpressing EYA1A; format: cell-based, mouse; conditions: 60 minutes after NCS exposure
Text: (§1) FIGS. 12A-12B show the effect of the established EYA1 γH2A.X^pY142 tyrosine phosphatase inhibitors Na3VO4 (blocking tyrosine phosphatase activity) and caffeine (blocking ATM-dependent recruitment of EYA1 towards γH2A.X) on γH2A.X^pY142 dephosphorylation and fibroblast accumulation. FIG. 12A depicts results of an analysis of photomicrographs of primary murine fibroblast cultures transfected with control plasmids (vector) and plasmids overexpressing EYA1A (EYA1A^oe) or EYA1C (EYA1C^oe). Cells were exposed to either Na3VO4 or caffeine and labelled for 7H2A.X^pY142 60 minutes after NCS exposure (n=100 nuclei each, data are presented as means±s.d., **p<0.01, # no significance, values of p were calculated using Student's t test comparing indicated groups). FIG. 12B depicts results of an analysis of proliferative activity of primary murine fibroblasts transfected with indicated constructs, seeded at a density of 60,000 per well. Proliferative activity was determined at indicated time points after exposure to Na3VO4 or caffeine (n=3 independent replicates, data are presented as means±s.d., ***p<0.001, ****p<0.0001, values of p were calculated using one-way ANOVA with Bonferroni post-hoc analysis comparing control and Na3VO4^− or caffeine-treated cultures overexpressing EYA1A). […]

[2] = tested on: primary murine fibroblast cultures overexpressing EYA1C; test: γH2A.X^pY142 labelling after NCS exposure in fibroblasts overexpressing EYA1C; format: cell-based, mouse; conditions: 60 minutes after NCS exposure
Text: as §1

[Na+].[Na+].[Na+].[O]=[V]([O-])([O-])[O-] [Na3VO4, sodium orthovanadate]
EYA1A-induced premature γH2A.X^pY142 dephosphorylation [1]: reversed | γH2A.X^pY142 in EYA1C overexpressing cells [2]: neither Na3VO4 nor caffeine affected

Cn1c(=O)c2c(ncn2C)n(C)c1=O [caffeine]
EYA1A-induced premature γH2A.X^pY142 dephosphorylation [1]: reversed | γH2A.X^pY142 in EYA1C overexpressing cells [2]: neither Na3VO4 nor caffeine affected
